Measurements reported in US11174253B2, “Compound and pharmaceutical composition containing the same” (ALPHALA CO., LTD., priority 2017, dated 2021).

Experiments:
Format in all cases: cell-based
[1] = system: NCI-H460 human lung cancer cell line; assay: MTS cell viability assay (NCI-60 methodology), GI50/LC50, NCI-H460; conditions: 48 h, NCI-H460 cells, 2 days incubation with compound
Procedure, shortened: (§1)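 Cells were plated 24 h before treatment, and a time-zero plate was read by MTS. Five 2-fold dilutions plus DMSO were then added for 48 h, and viability was measured by MTS. GI50 is from [(Ti−Tz)/(C−Tz)]×100=50 and LC50 from [(Ti−Tz)/Tz]×100=−50.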

[2] = system: hepatocellular carcinoma cell line Hep3B; assay: Growth inhibition of Hep3B cells, 48 hr treatment, Hoechst 33342 nucleus count (GE InCell 2200); conditions: Homo sapiens, Table 6, ratio of number of tumor cells treated with 10 μM compound to non-treated cells
Procedure, shortened: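 Compound exposure lasted 48 hr at 37° C, 5% CO2. Surviving nuclei were counted after Hoechst 33342 staining, and survival was expressed as the treated/non-treated cell number ratio, including the ratio at 10 μM compound.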

[3] = system: SW480 colon adenocarcinoma cell line; assay: MTS cell viability assay (NCI-60 methodology), GI50/LC50, SW480; conditions: Homo sapiens, 48 h, SW480 cells, 2 days incubation with compound
Procedure, shortened: as §1

[4] = system: Hep3B hepatocellular carcinoma cell line; assay: MTS cell viability assay (NCI-60 methodology), GI50/LC50, Hep3B; conditions: Homo sapiens, 48 h, Hep3B cells, 2 days incubation with compound
Procedure, shortened: as §1

CCCOc1ccc(-c2nc(NC(=O)c3ccc([N+](=O)[O-])s3)sc2-c2ccc(F)cc2)cc1 [Compound 6-16, N-(5-(4-fluorophenyl)-4-(4-propoxyphenyl)thiazol-2-yl)-5-nitrothiophene-2-carboxamide]
GI50 [1]: 860 nM
LC50 (concentration giving 50% net cell loss versus time zero, NCI-60 definition) [1]: 1750 nM
viability at 10 µM [2]: 59%
GI50 [3]: 1890 nM
LC50 (NCI-60 lethal concentration, 50% net cell loss vs time zero) [3]: 2790 nM
GI50 [4]: 1240 nM
LC50 [4]: 1830 nM

CCCCOc1ccc(-c2nc(NC(=O)c3ccc([N+](=O)[O-])s3)sc2-c2ccc(F)cc2)cc1 [Compound 6-18, N-(4-(4-butoxyphenyl)-5-(4-fluorophenyl)thiazol-2-yl)-5-nitrothiophene-2-carboxamide]
GI50 [1]: 2010 nM
LC50 (concentration giving 50% net cell loss versus time zero, NCI-60 definition) [1]: 8260 nM
viability at 10 µM [2]: 26%
GI50 [3]: 6490 nM
GI50 [4]: 1380 nM
LC50 [4]: 2170 nM

CC(C)(C)c1ccc(-c2nc(NC(=O)c3ccc([N+](=O)[O-])s3)sc2-c2ccccc2)cc1 [Compound 6-21, N-(4-(4-(tert-butyl)phenyl)-5-phenylthiazol-2-yl)-5-nitrothiophene-2-carboxamide]
GI50 [1]: 810 nM
LC50 (concentration giving 50% net cell loss versus time zero, NCI-60 definition) [1]: 1470 nM
viability at 10 µM [2]: 29%
GI50 [3]: 490 nM
LC50 (NCI-60 lethal concentration, 50% net cell loss vs time zero) [3]: 1470 nM
GI50 [4]: 670 nM
LC50 [4]: 1350 nM

CC(C)(C)c1ccc(-c2nc(NC(=O)c3ccc([N+](=O)[O-])s3)sc2-c2ccc(F)cc2)cc1 [Compound 6-24, N-(4-(4-(tert-butyl)phenyl)-5-(4-fluorophenyl)thiazol-2-yl)-5-nitrothiophene-2-carboxamide]
GI50 [1]: 1560 nM
LC50 (concentration giving 50% net cell loss versus time zero, NCI-60 definition) [1]: 4220 nM
viability at 10 µM [2]: 30%
GI50 [3]: 1370 nM
LC50 (NCI-60 lethal concentration, 50% net cell loss vs time zero) [3]: 3570 nM
GI50 [4]: 990 nM
LC50 [4]: 1930 nM

CCOc1ccc(-c2nc(NC(=O)c3ccc([N+](=O)[O-])s3)sc2Cc2ccccc2)cc1 [Compound 6-34, N-(5-benzyl-4-(4-ethoxyphenyl)thiazol-2-yl)-5-nitrothiophene-2-carboxamide]
GI50 [1]: 1400 nM
viability at 10 µM [2]: 44%
GI50 [3]: 2510 nM
GI50 [4]: 1010 nM
LC50 [4]: 7530 nM

CC(C)(C)c1ccc(-c2nc(NC(=O)c3ccc([N+](=O)[O-])s3)sc2-c2cc(F)cc(F)c2)cc1 [Compound 6-38, N-(4-(4-(tert-butyl)phenyl)-5-(3,5-difluorophenyl)thiazol-2-yl)-5-nitrothiophene-2-carboxamide]
GI50 [1]: 700 nM
LC50 (concentration giving 50% net cell loss versus time zero, NCI-60 definition) [1]: 1650 nM
viability at 10 µM [2]: 30%
GI50 [3]: 740 nM
LC50 (NCI-60 lethal concentration, 50% net cell loss vs time zero) [3]: 4060 nM
GI50 [4]: 630 nM
LC50 [4]: 1610 nM

CCC(C)(C)c1ccc(-c2nc(NC(=O)c3ccc([N+](=O)[O-])s3)sc2-c2ccc(F)cc2)cc1 [Compound 6-40, N-(5-(4-fluorophenyl)-4-(4-(tert-pentyl)phenyl)thiazol-2-yl)-5-nitrothiophene-2-carboxamide]
GI50 [1]: 1880 nM
LC50 (concentration giving 50% net cell loss versus time zero, NCI-60 definition) [1]: 3610 nM
viability at 10 µM [2]: 25%
GI50 [3]: 920 nM
LC50 (NCI-60 lethal concentration, 50% net cell loss vs time zero) [3]: 1350 nM
GI50 [4]: 540 nM
LC50 [4]: 3030 nM

CC(C)(C)c1ccc(-c2nc(NC(=O)c3ccc([N+](=O)[O-])s3)sc2-c2ccc(F)c(F)c2)cc1 [Compound 6-46, N-(4-(4-(tert-butyl)phenyl)-5-(3,4-difluorophenyl)thiazol-2-yl)-5-nitrothiophene-2-carboxamide]
GI50 [1]: 630 nM
LC50 (concentration giving 50% net cell loss versus time zero, NCI-60 definition) [1]: 900 nM
viability at 10 µM [2]: 31%
GI50 [3]: 680 nM
LC50 (NCI-60 lethal concentration, 50% net cell loss vs time zero) [3]: 1330 nM
GI50 [4]: 590 nM
LC50 [4]: 1100 nM

CCC(C)(C)c1ccc(-c2nc(NC(=O)c3ccc([N+](=O)[O-])s3)sc2-c2ccc(F)cc2F)cc1 [Compound 6-47, N-(5-(2,4-difluorophenyl)-4-(4-(tert-pentyl)phenyl)thiazol-2-yl)-5-nitrothiophene-2-carboxamide]
GI50 [1]: 580 nM
LC50 (concentration giving 50% net cell loss versus time zero, NCI-60 definition) [1]: 930 nM
viability at 10 µM [2]: 33%
GI50 [3]: 640 nM
LC50 (NCI-60 lethal concentration, 50% net cell loss vs time zero) [3]: 1390 nM
GI50 [4]: 590 nM
LC50 [4]: 660 nM

CC(C)(C)c1ccc(-c2nc(NC(=O)c3ccc([N+](=O)[O-])s3)sc2-c2ccc(Br)cc2)cc1 [Compound 6-53, N-(5-(4-bromophenyl)-4-(4-(tert-butyl)phenyl)thiazol-2-yl)-5-nitrothiophene-2-carboxamide]
GI50 [1]: 710 nM
LC50 (concentration giving 50% net cell loss versus time zero, NCI-60 definition) [1]: 1370 nM
viability at 10 µM [2]: 24%
GI50 [3]: 620 nM
LC50 (NCI-60 lethal concentration, 50% net cell loss vs time zero) [3]: 990 nM
GI50 [4]: 540 nM
LC50 [4]: 620 nM

COc1ccc(-c2sc(NC(=O)c3ccc([N+](=O)[O-])s3)nc2-c2ccc(C(C)(C)C)cc2)cc1 [Compound 6-54, N-(4-(4-(tert-butyl)phenyl)-5-(4-methoxyphenyl)thiazol-2-yl)-5-nitrothiophene-2-carboxamide]
GI50 [1]: 440 nM
LC50 (concentration giving 50% net cell loss versus time zero, NCI-60 definition) [1]: 1590 nM
viability at 10 µM [2]: 25%
GI50 [3]: 1380 nM
LC50 (NCI-60 lethal concentration, 50% net cell loss vs time zero) [3]: 2350 nM
GI50 [4]: 610 nM
LC50 [4]: 710 nM

CC(C)(C)c1ccc(-c2nc(NC(=O)c3ccc([N+](=O)[O-])s3)sc2-c2ccc(Cl)cc2)cc1 [Compound 6-59, N-(4-(4-(tert-butyl)phenyl)-5-(4-chlorophenyl)thiazol-2-yl)-5-nitrothiophene-2-carboxamide]
GI50 [1]: 700 nM
LC50 (concentration giving 50% net cell loss versus time zero, NCI-60 definition) [1]: 1280 nM
viability at 10 µM [2]: 27%
GI50 [3]: 750 nM
LC50 (NCI-60 lethal concentration, 50% net cell loss vs time zero) [3]: 1620 nM
GI50 [4]: 600 nM
LC50 [4]: 640 nM
